This note sets out measurements from US12398108B2, “Compounds, compositions, and methods for treating diseases” (Drexel University, priority 2017, dated 2025).

Experiment [1] can be described thus: administration to a subject in pain. Format: in vivo. On the procedure: 1-(2,2-Dimethyl-3-(4-(trifluoromethyl)phenoxy)propyl)-3-(pyrimidin-5-yl)guanidine is administered to a subject in pain. The subject's pain is alleviated.
Another experiment deals with Human Androgen Receptor. Description: Indigo Biosciences Human Androgen Receptor Reporter Assay System. Format: cell-based. The procedure:
The compound's activity was also measured for its ability to inhibit androgen receptor reporter activity. The assay that was used was Indigo Biosciences Human Androgen Receptor Reporter Assay System. […] Based upon these activities, the compounds are expected to have anti-tumor effects.

For another experiment, the target named is Sigma1 receptor (Homo sapiens, UniProt Q99720). Put plainly: binding to Sigma1 receptor.
Sequence of Sigma1 receptor (Q99720 whole entry, species assumed): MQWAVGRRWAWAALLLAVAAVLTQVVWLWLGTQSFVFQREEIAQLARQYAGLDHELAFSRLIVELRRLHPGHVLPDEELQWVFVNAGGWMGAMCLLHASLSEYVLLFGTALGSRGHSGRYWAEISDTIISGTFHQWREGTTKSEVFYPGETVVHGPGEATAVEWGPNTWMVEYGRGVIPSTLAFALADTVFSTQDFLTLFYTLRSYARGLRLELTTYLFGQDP
The next experiment relates to breast cancer. Put plainly: administration to a subject who has breast cancer. Format: in vivo. The procedure: 1-(2,2-Dimethyl-3-(4-(trifluoromethyl)phenoxy)propyl)-3-(pyrimidin-5-yl)guanidine is administered to a subject who has breast cancer. The tumor growth is inhibited and the tumor size is reduced.

Regarding `CC(C)(CNC(=N)Nc1cncnc1)COc1ccc(C(F)(F)F)cc1` [1-(2,2-Dimethyl-3-(4-(trifluoromethyl)phenoxy)propyl)-3-(pyrimidin-5-yl)guanidine], the “subject's pain” value in experiment [1] was “alleviated”. In addition, in the experiment with Human Androgen Receptor, the “ability to inhibit androgen receptor reporter activity” value is on record as “active”. At Sigma1 receptor, the “binding to Sigma1 receptor” value is listed as “nanomolar range”. In the experiment on breast cancer, the tumor growth entry is listed as “inhibited” and the tumor size entry is “reduced”.
